Data set [1] deals with T1, mushroom tyrosinase (Agaricus bisporus, UniProt C7FF04). In words: Kinetic analysis of the inhibition of tyrosinase (Lineweaver-Burk plots). It is filed as biochemical. The following applies: L-DOPA substrate. On the set-up: purchased Sigma-Aldrich. The protocol: The mechanism for tyrosinase inhibition of the tested compounds was determined from Lineweaver–Burk double reciprocal plots. The plot provides a useful graphical method for analysis of the Michaelis–Menten equations used to determine the Km values for possible competitive, uncompetitive, non-competitive, and mixed mechanisms of inhibition. All Lineweaver–Burk plots can be found in the Supplementary Information. As can be easily noticed, the majority of tested compounds are characterized by the mixed mode of inhibition (Table 2). It is a type of enzyme inhibition in which the inhibitor may bind to the enzyme whether or not the enzyme has already bound to the substrate.
A series of experiments was performed to determine the inhibition kinetics of the tested compounds following the already reported method. The inhibitor concentrations for the tested compounds were 0.05 and 0.1 mM. The substrate L-DOPA concentration was between 0.1 and 0.25 mM in all kinetic studies, but for the FN-06 and FN-27 compounds, concentrations between 0.15 and 0.3 mM were used. Maximal initial velocity was determined from the initial linear portion of absorbance up to ten minutes after the addition of the enzyme. The inhibition type of the enzyme, Michaelis constant (Km), and maximal velocity (Vmax) were determined using Lineweaver–Burk plots of the inverse of velocities (1/V) versus the inverse of substrate concentration 1/[L-DOPA] mM^−1.
Target sequence in this assay (C7FF04 1-392 limits assumed): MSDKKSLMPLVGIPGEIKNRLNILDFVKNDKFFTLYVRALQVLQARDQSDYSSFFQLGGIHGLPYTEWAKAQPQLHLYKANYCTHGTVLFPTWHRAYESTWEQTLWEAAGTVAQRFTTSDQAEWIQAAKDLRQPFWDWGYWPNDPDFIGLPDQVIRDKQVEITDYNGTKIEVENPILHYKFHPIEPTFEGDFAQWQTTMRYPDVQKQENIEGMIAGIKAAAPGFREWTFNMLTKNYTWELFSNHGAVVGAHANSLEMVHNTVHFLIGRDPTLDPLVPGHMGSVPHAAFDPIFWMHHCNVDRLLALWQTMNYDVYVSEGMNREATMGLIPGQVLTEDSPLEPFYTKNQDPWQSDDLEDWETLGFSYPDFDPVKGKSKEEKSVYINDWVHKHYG

Data set [2] concerns the target mushroom tyrosinase. The following applies: ref [39],[40],[41]; cited from earlier work.
Data set [3] relates to cellular tyrosinase in B16F10 cells. The following applies: ref [39],[40],[41]; cited from earlier work.
The next data set deals with B16F10 cells. Particulars: ref [39],[40],[41]; cited from earlier work.
Data set [4] addresses tyrosinase. The following applies: cited from earlier work.
Data set [5] deals with T1, mushroom tyrosinase. The data set is described as follows: Mushroom tyrosinase inhibition assay (L-DOPA substrate, dopachrome at 475 nm). The data set is classed as biochemical. The protocol:
All compounds were tested for their inhibitory effects on mushroom tyrosinase using L-DOPA as substrate. In general, the results were compared with standard tyrosinase inhibitors, such as kojic acid and ascorbic acid. […]. The mushroom tyrosinase (Sigma-Aldrich) inhibition was performed following previously reported methods. All assays were carried out with solutions containing phosphate buffer (50 mM, pH 6.8), L-DOPA (0.17 mM), EDTA (0.022 mM), tyrosinase (50–100 units), and varying concentrations of compounds, and were performed in triplicate at room temperature. The inhibitor solutions were prepared in DMSO with an initial concentration of 1 mM. Different aliquots were added to the solution containing buffer, L-DOPA, and EDTA, the enzyme being added in the end. The formation of dopachrome was determined by monitoring the absorbance at 475 nm with a T60U spectrophotometer (PG Instruments) equipped with quartz cells of 1 cm path length. Kojic acid and ascorbic acid were used as reference inhibitors with an initial concentration of 1 mM. The IC50 values were calculated from the equation generated with an exponential fit of the experimental data. […]
Target sequence in this assay (C7FF04 2-392): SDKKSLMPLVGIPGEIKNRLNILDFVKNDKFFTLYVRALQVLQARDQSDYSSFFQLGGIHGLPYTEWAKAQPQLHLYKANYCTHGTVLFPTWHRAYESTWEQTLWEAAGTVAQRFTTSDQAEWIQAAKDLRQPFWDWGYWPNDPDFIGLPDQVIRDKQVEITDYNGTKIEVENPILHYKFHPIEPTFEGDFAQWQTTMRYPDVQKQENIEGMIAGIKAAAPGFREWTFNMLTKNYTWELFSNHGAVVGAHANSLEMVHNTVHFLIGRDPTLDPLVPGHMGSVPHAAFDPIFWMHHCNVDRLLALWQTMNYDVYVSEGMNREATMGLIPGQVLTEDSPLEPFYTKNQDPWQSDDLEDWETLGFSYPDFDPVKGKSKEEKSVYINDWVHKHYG

In data set [6] the target is T2, tyrosinase (Agaricus bisporus, UniProt C7FF04).
T2 construct: purchased Sigma-Aldrich
The data set is described as follows: UV-Vis spectra of L-DOPA oxidation by tyrosinase in absence and presence of inhibitor. The data set is classed as biochemical, mushroom. Particulars: after 30 min, versus L-DOPA with tyrosinase. On the procedure:
The remaining compound FN-40 is a competitive inhibitor, which binds to the enzyme at its active site, preventing the binding of the substrate to the enzyme. […] To observe the effect of the oxidation of L-DOPA by tyrosinase in the absence and presence of the tested compounds, the UV-Vis spectra were determined. During L-DOPA oxidation by tyrosinase, a characteristic signal at 475 nm is observed in the UV-Vis spectrum, corresponding to the formation of dopachrome.

The test system of a further data set is intracellular tyrosinase. On the set-up: method as in PMID 35063859. The following applies: ref [45], cited from earlier work.
Another data set relates to production of melanin. On the set-up: method as in PMID 35063859. Particulars: ref [45]; cited from earlier work.

Entries after “also recorded” stand apart in the source; their conditions may differ. Where two headings read alike, the source gives them in different places.

T2 sequence (C7FF04 1-392 limits assumed): as the sequence (C7FF04 1-392 limits assumed) above

As for `CC(=O)c1cc2ccccc2oc1=O` [MP-05, 3. -Acetyl-2H-chromen-2-one], the “Inhibitory Mechanism” value on mushroom tyrosinase [1] (compound at 0.1 mM) was “Mixed”.
On the same count and under the same terms, under `COc1cccc2cc(/C(C)=N/NC(N)=S)c(=O)oc12` [FN-27, (1E)-1-(1-(8-Methoxy-2-oxo-2H-chromen-3-yl)ethylidene)thiosemicarbazide] stands “mixed inhibitors”.
As for `O=c1oc2cc(O)cc(O)c2cc1-c1cc(Br)cs1` [Compound 2], the IC50 (usually the point on the concentration scale where inhibition reaches its midpoint) on mushroom tyrosinase [2] is 380 ± 84 nM. Besides, in data set [3], the cellular tyrosinase activity entry is recorded as “able to inhibit”. For the same molecule, in the data set with B16F10 cells, the melanin production entry was “able to inhibit”.
As to `COc1cccc2cc(/C(C)=N/NC(N)=O)c(=O)oc12` [FN-25, (1E)-1-(1-(8-Methoxy-2-oxo-2H-chromen-3-yl)ethylidene)semicarbazide], the melting point (usually the temperature of the solid-liquid transition) was in the range of 240 to 242 °C. For the same molecule, the “Inhibitory Mechanism” value on mushroom tyrosinase [1] (compound at 0.1 mM) is given as “Mixed”.
Consider `COc1cc(C2CC(c3cc4ccccc4oc3=O)=NN2c2nc(-c3ccc(Br)cc3)cs2)ccc1OCc1ccccc1` (stereo not shown) [Compound 5], for which the IC50 on tyrosinase [4] (ref [43]) is 4.58 ± 0.22 nM.
`COc1cccc2cc(C(C)=O)c(=O)oc12` [FN-07, 3. -Acetyl-8-methoxy-2H-chromen-2-one]: the “Inhibitory Mechanism” value on mushroom tyrosinase [1] (compound at 0.1 mM) is recorded as “Mixed”.
For the molecule “(E)-N’-(4-(dimethylamino)benzylidene)-2-methylene-2H-chromene-3-carbohydrazide [FN-11]”, the IC50 against mushroom tyrosinase [5] (mushroom tyrosinase, L-DOPA 0.17 mM as substrate, pH 6.8, triplicate, room temperature) was 159000 nM. Besides, the “Inhibitory Mechanism” value at mushroom tyrosinase [1] (compound at 0.1 mM) is on record as “Mixed”.
`CC(C)=CCOc1c2occc2cc2ccc(=O)oc12` [Compound 6, marmelosin]: the IC50 on tyrosinase [4] (ref [44]) is 20300 ± 1260 nM.
`O=c1oc2cc(O)cc(O)c2cc1-c1cccs1` [Compound 1]: the half-maximal inhibitory concentration (IC50) at mushroom tyrosinase [2] was 150 ± 28 nM.
`CC(=O)c1cc2ccc(O)cc2oc1=O` [FN-06, 3. -Acetyl-7-hydroxy-2H-chromen-2-one]: the “Inhibitory Mechanism” value at mushroom tyrosinase [1] (compound at 0.1 mM) is listed as “mixed inhibitors”.
On to `C/C(=N\NC(N)=S)c1cc2ccc(O)cc2oc1=O` [FN-19, (1E)-1-(1-(7-Hydroxy-2-oxo-2H-chromen-3-yl)ethylidene)thiosemicarbazide], for which the “signal intensity at 475 nm (dopachrome formation)” value at tyrosinase [6] was “significant reduction; also recorded: significantly reduce”. Also, the “Inhibitory Mechanism” value at mushroom tyrosinase [1] (compound at 0.1 mM) is reported as “mixed inhibitor; also recorded: mixed mode”.
Regarding `CC(=O)c1cc2cc(Br)ccc2oc1=O` [FN-40], the “Inhibitory Mechanism” value on mushroom tyrosinase [1] (compound at 0.1 mM) is recorded as “Competitive”.
On to `CC(=O)c1cc2ccc(C)cc2oc1=O` [MP-04, 3. -Acetyl-7-methyl-2H-chromen-2-one], for which the melting point is 157 to 159 °C. The “Inhibitory Mechanism” value at mushroom tyrosinase [1] (compound at 0.1 mM) is “Noncompetitive”.
For `CN(C)c1ccc(/C=C/C(=O)c2cc3ccccc3oc2=O)cc1` [FN-10, 3. -((E)-3-(4-(Dimethylamino)phenyl)acryloyl)-2H-chromen-2-one], the melting point is 111 to 112 °C. In addition, on mushroom tyrosinase [1] (compound at 0.05 mM), the “Inhibitory Mechanism” value is reported as “mixed inhibitors”.
Consider `COc1cccc2cc(/C(C)=N/NC(=O)c3ccncc3)c(=O)oc12` [FN-29, (13E)-N’-(1-(8-Methoxy-2-oxo-2H-chromen-3-yl)ethylidene)isonicotinohydrazide], for which the melting point fell in the range of 202 to 206 °C. In addition, on mushroom tyrosinase [5] (in words), the “solubility in the tyrosinase assay” value is “not soluble”. Moreover, on mushroom tyrosinase [1] (compound at 0.1 mM), the “Inhibitory Mechanism” value was “Mixed”.
As to `CC(C)=CC(=O)O[C@H]1Cc2cc3ccc(=O)oc3cc2OC1(C)C` [Compound 7, decursin], the “%Tyrosine inh.” value in the data set with intracellular tyrosinase (at 30 μM) is 59.8 ± 0.6%. Moreover, the “intracellular activity of tyrosinase” value with intracellular tyrosinase is reported as “decreases”. Moreover, the production of melanin entry with production of melanin is given as “reduces”.
On to `O=c1oc2cc(O)cc(O)c2cc1-c1ccc(Br)cc1` [Compound 3], for which the 50% inhibitory concentration (IC50) at mushroom tyrosinase [2] was 1050 ± 56 nM. Further, the cellular tyrosinase activity entry in data set [3] was “able to inhibit”. Further, in the data set with B16F10 cells, the melanin production result is listed as “able to inhibit”.
`CC(=O)c1cc2cc([N+](=O)[O-])ccc2oc1=O` [MP-03, 3. -Acetyl-6-nitro-2H-chromen-2-one]: the melting point was in the range of 201 to 203 °C. Besides, the “Inhibitory Mechanism” value on mushroom tyrosinase [1] (compound at 0.1 mM) is “Uncompetitive”.
`C/C(=N\NC(N)=O)c1cc2ccc(O)cc2oc1=O` [FN-17, (1E)-1-(1-(7-Hydroxy-2-oxo-2H-chromen-3-yl)ethylidene)semicarbazide]: the melting point is 226 to 229 °C. In addition, the “Inhibitory Mechanism” value on mushroom tyrosinase [1] (compound at 0.1 mM) is “Mixed”.

These data come from paper PMC10048804, “Coumarin-Based Compounds as Inhibitors of Tyrosinase/Tyrosine Hydroxylase: Synthesis, Kinetic Studies, and In Silico Approaches” (International Journal of Molecular Sciences, 2023).
